Results as given in patent publication US20030186943A1, “Substituted gamma-phenyl-delta-lactams and uses related thereto” (Inflazyme Pharmaceuticals Ltd., priority 1998, published 2003).
Several values for one entry are separate records, joined by “and”; a condition that tells them apart may be missing. Equal entries are not always repeated.

Legend:
[1] = test system: collagen-induced arthritis (CIA) in the mouse; experiment: Murine collagen-induced arthritis model; assay type: in vivo
Procedure: Male DBA/1J mice (7-8 weeks of age) were immunized through a subcutaneous injection of 0.1 mL of a collagen-adjuvant emulsion (0.1 mg chick type II collagen in complete Freund's adjuvant) at the base of the tail. Mice were then randomly assigned to treatment or control groups in the following manner: Compound 43 (n=10); 45% 2-hydroxypropyl betacyclodextrin in 0.9% saline vehicle control (n-10); untreated (n=5) and dexamethasone positive control (n=5). After three weeks the animals were boosted with a second injection of chick type II collagen emulsified at 1.0 mg/mL in incomplete Freund's adjuvant. This second injection is required for reproducible induction of disease. In control animals, clinical signs of arthritis manifested as erythema and edema of the paws and tarsal/metatarsal joints usually appear within 1-2 weeks following the second immunization. Compounds were evaluated for their ability to delay the onset of or reduce the development of arthritis (prophylactic regime). Vehicle, dexamethasone positive control (0.075 mg/kg) and compound 43 (10 mg/kg) were administered twice daily (50 microliter per injection) by i.p. injection beginning on the day of the second collagen injection. The mice continued to receive doses until the last animal in the vehicle control group reached the seventh day of having established disease. In this particular case, this necessitated treatment for 25 days including the day of the booster injection.
The development of clinical arthritis (disease progression) was monitored daily after the second collagen injection. All four limbs were clinically evaluated by a trained observer unfamiliar (blinded) with the treatment group identity, and scored on a scale of 0-4 for disease severity (redness and swelling) according to the following criteria.
Inflammation was defined as any redness or swelling (enlargement) of any part of any paw. Established disease was defined as a qualitative score of paw inflammation of 2 or greater, that persists for at least 24 hours. In addition, paw widths for all four limbs were measured by a blinded observer daily using precision, constant tension calipers.
At the end of the study each animal was euthanized by an overdose of halothane anesthesia. Joints both distal to the knee and including the knee were dissected and analyzed by histology. Limb joints were fixed in 10% formalin buffer and decalcified in 10% formic acid for 48 hours, then processed for paraffin embedding. Serial sections (5-7 micrometer thick) were stained with haematoxylin and eosin (H & E). Histopathological alterations of the tarsal and metatarsal joints were graded “blind” by a certified pathologist and a score assigned based on a ranking system.
Mice were sacrificed on the 25th day after the second collagen injection corresponding to approximately the 10th day of established disease. All four paws from each animal in the study were removed, fixed and processed for blinded histopathological examination by an ACVP board certified veterinary pathologist. Joint pathology for each foot was classified on a scale of 0 to 4, with 0 being normal and 4 the most severely affected. Lesion grades were assigned based on the most severe lesion(s) present in the paw according to the following scale:
The individual paw scores were then summed to obtain a total for each animal with a maximum possible score for an animal being 16. Group values were obtained by averaging the individual animal scores.

[2] = test system: TNBS-induced colitis in the rat; experiment: TNBS-induced colitis model of inflammatory bowel disease in the rat; settings: for MPO Activity (U/mg): colonic tissue;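 on all read-outs here: rat colitis induced by intracolonic TNBS in 50% ethanol, distal colon assessed at sacrifice on day 7, with saline-instilled vehicle-treated rats as controls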
Procedure: Colitis was induced by intracolonic instillation of the hapten TNBS (60 mg/mL) in 0.5 mL of 50% ethanol. […] An additional group of rats received saline intracolonically in place of TNBS/ethanol and was treated with vehicle at the same times as outlined above. Body weights were recorded at the beginning of the study and at days 2 and 7.
The rats were sacrificed on the 7th day after the induction of colitis and the extent of damage and inflammation was assessed. After the rats were sacrificed, the distal colon was removed and pinned out on a wax platform. The presence or absence of diarrhea was noted, as well as the presence and severity of adhesions between the colon and other organs, and the severity and extent of colonic damage. […] After scoring, a sample of colonic tissue was excised for measurement of myeloperoxidase activity as an index of granulocyte infiltration (see Wallace et al., Gastroenterology 117: in press, 1999; and Morris et al., Gastroenterology 96:795-803, 1989). This tissue sample was 1 cm long (along the axis of the colon) and 5 mm wide and was taken from a region of macroscopically visible damage (or the corresponding region in any rats in which there was no damage). The remainder of the tissue was fixed in neutral buffered formalin and processed by routine methods for subsequent evaluation by light microscopy. In a blinded manner, the sample of colonic tissue from each rat was examined for evidence of mucosal ulceration and inflammation. The percentage of the luminal surface of the section in which ulceration was present was calculated.

[3] = test system: mixed-lymphocyte-reaction; experiment: One way and two way mixed-lymphocyte-reaction (MLR); assay type: cell-based; settings: read-out: inhibition of proliferation in MLR
[4] = test system: T1, High Affinity Rolipram Binding Site of PDE4 in Mouse Brain; experiment: Displacement of [3H]-rolipram from its high affinity binding site (HARBS)
T1 construct: other: mouse brain membranes, [3H]-Rolipram; X marks this range; other: mouse brain membranes, [3H]; Suspension was centrifuged twice at 30,000×G at 4° C. and the supernatant discarded

Th1 cells = experiment: Proliferation of differentiated Th1 CD4+ T cells; assay type: cell-based, mouse; settings: CD4+ T cells already differentiated into Th1 phenotype
Procedure: The differentiation of naive CD4 T cells toward Th1 and Th2 lineages was performed as follows: 1×10^5 AND-lymph node T cells were cultured with […] B10.BR irradiated spleen cells in 2 ml of culture media with the following supplements: for Th1 cell differentiation, 100 U/mL IFNγ, 25U/mL IL2 and 10 ug/mL anti-IL4; for Th2 cell differentiation, 150 U/mL IL4, 25 U/mL IL2 and 10 ug/mL anti-IFNγ. After 3-4 days the wells were split 1:4 with the same additions. After 7 days the cells were harvested and washed 3 times to remove cytokines in the supernatents. 1×10^5 cultured cells were restimulated with 5×10^5 irradiated B10BR spleen cells +5 μM pcc peptide in 250 μl culture media without any added cytokines. The supernatents were harvested after 40 hrs and assessed for IL2, IL4 and IFNγ by ELISA. Test compounds were added throughout the differentiation of the culture.
Cultured Th1 and Th2 cells generated in the absence of test compounds were tested for proliferation and cytokine activity as described above during antigen stimulation in the presence of compound.

[5] = 10 mg/kg i.p. twice daily, prophylactic, Day 25 after collagen boost
[6] = 10 mg/kg intracolonically at 12 h intervals for one week, day 7

Structure (SMILES): COc1cc(CC2C[C@@H](c3ccc(OC)c(OC4CCCC4)c3)COC2=O)ccc1O (some centres unmarked) [Compound 43]
- reduction of arthritis score compared to the vehicle group ([1]; 10 mg/kg i.p. bid, day 25): 35%
- reduction of histopathological score compared to the vehicle group ([1]; 10 mg/kg i.p. bid, day 25): 29%
- reduction of paw edema compared to the vehicle group ([1]; 10 mg/kg i.p. bid, day 25): 42%
- Histopathological Score (range) ([1]; 10 mg/kg i.p. twice daily, Day 25, maximum possible score 16): 7.7 (1-15)
- Paw Arthritis Score [1, 5]: 3.3 ± .64
- Paw Edema (1/100 in.) [1, 5]: 0.052 ± .0051 1/100 in.
- rate of disease progression as assessed by paw score ([1]; 10 mg/kg i.p., bid, last 10 days of the study): significantly reduced
- colonic damage score (% of vehicle) ([2]; 10 mg/kg): 49 % of vehicle
- histological score (% of control) ([2]; 10 mg/kg): 52 % of control
- incidence of adhesions (% of vehicle) ([2]; 10 mg/kg): 36 % of vehicle
- thickness of the bowel wall (% of vehicle) ([2]; 10 mg/kg): 30 % of vehicle
- total reduction in the global colitis score compared to vehicle treated animals ([2]; 10 mg/kg): 51%
- Mortality ([2]; 10 mg/kg intracolonically at 12 h intervals for one week): 0/8
- Adhesion (Incidence) [2, 6]: (3/8)^ζ
- Adhesion Score [2, 6]: 0.5 ± 0.3
- Bowel Thickness (mm) [2, 6]: 1.67 ± 0.28 mm
- Damage Score [2, 6]: 3.4 ± 0.9
- Global Colitis Score [2, 6]: 5.86 ± 1.35
- MPO Activity (U/mg) [2, 6]: 65.1 ± 8.6 U/mg
- MPO Activity (U/mg) ([2]; 10 mg/kg intracolonically at 12 h intervals for one week, day 7, 10 mg/kg): not prevented
- Diarrhea ([2]; incidence, 10 mg/kg intracolonically at 12 h intervals for one week, day 7, 10 mg/kg): not statistically significant and 3/8
- Histology Score ([2]; percentage of luminal surface ulcerated, 10 mg/kg intracolonically for one week, day 7): 50.6 ± 10.5
- inhibition at 20 µM [3]: ≥ 50%
- times less potent than rolipram for interaction with the HARBS conformer of PDE4 [4]: approximately 28 fold
- IC50 ([4]; read-out: IC50 for displacement of 3H-rolipram from high-affinity binding site (HARBS activity), mouse brain): 250 nM
- inhibition of Th1 cells (Th1 cells): approx. 30%
